Changes are numbered by the printed parent chain.
Legend:
HepG2 = experiment: STAT-responsive luciferase reporter in HepG2 cells without transfected receptor; type: cell-based, human; conditions: HepG2 transfected with STAT-responsive luciferase reporter only, no TPO receptor
Experimental: (§1) International Application No. PCT/US99/30371, published as WO 00/35446 on Jun. 22, 2000, discloses that the TPO receptor can be activated by small molecule ligands of Formula (I).
(§2) In determining the efficacy and potency of the presently invented compounds as agonists of dimeric cell-surface receptors, a luciferase reporter gene assay configured in HepG2 cells was utilized (see Tian et al., Science 1998, 281, 257-259).
HepG2 cells were plated in 24-well plates in triplicates for overnight. The cells were then transfected with the indicated receptor construct, a GAS response element containing luciferase reporter, 8×118-TkLUC and STAT5b expression vector (a gift of Dr. James Ihle, Memphis, Tenn.) by Superfect method (QIAGEN, Valencia, Calif.) as instructed by the manufacturer. After an overnight recovery, the transfected cells were treated with 0.1% DMSO, TPO or compound of Example 4 at the indicated concentrations for 4-5 hrs. The cells were then lysed and the level of luciferase expression was measured by a plate reader.

human TPO receptor = biological target: T1, human TPO receptor (Homo sapiens, UniProt P40238); experiment: luciferase reporter in HepG2 cells cotransfected with human TPO receptor; type: cell-based; conditions: HepG2 cotransfected with human TPO receptor expression vector and reporter
T1 construct: expressed in transfected cells; host or cells: HepG2
T1 sequence (P40238 26-635): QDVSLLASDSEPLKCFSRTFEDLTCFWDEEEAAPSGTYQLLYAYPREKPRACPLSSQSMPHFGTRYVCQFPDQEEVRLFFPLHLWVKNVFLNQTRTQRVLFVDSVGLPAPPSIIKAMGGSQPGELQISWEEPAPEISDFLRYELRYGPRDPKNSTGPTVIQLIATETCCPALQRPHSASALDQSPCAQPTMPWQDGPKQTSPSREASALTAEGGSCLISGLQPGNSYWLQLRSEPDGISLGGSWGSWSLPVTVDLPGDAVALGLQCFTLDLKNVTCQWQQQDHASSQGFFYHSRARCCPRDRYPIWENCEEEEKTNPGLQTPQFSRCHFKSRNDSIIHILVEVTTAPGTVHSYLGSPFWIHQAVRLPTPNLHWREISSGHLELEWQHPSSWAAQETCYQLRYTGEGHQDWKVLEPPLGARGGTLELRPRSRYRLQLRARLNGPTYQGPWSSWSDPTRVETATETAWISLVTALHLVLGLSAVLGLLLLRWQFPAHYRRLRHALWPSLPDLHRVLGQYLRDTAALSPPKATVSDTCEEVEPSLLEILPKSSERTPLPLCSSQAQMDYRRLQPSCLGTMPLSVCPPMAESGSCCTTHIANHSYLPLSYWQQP
Description: as §1, §2
Human Tpo receptor (hMPL) was cloned from HEL 92.1.7 cells (ATCC, Rockville, Md.) by PCR (forward primer: 5′-ACGAAGCTTAGCCAAGATGTCTCCTTGCTGGCAT-3′ and reverse primer: 5′-AGCCTCGAGTCAAGGCTGCTGCCAATAGCT-3′). The cloned full-length cDNA was confirmed by DNA sequencing analysis, then subcloned into HindIII-XhoI digested pSSF vector. The cynomolgous Tpo-R (cMPL) was cloned from bone marrow cDNA using the human 5′ and 3′ terminal coding sequences. The full-length cDNA was sequenced and subcloned into EcoRI digested pCDNA3. 1 (+) vector (Invitrogen, San Diego, Calif.). […]
HepG2 cells were plated in 24-well plates in triplicates for overnight. […] The cells were then lysed and the level of luciferase expression was measured by a plate reader.

human TPO receptor H499L = biological target: T2, human TPO receptor H499L (Homo sapiens, UniProt P40238, H499L); experiment: luciferase reporter in HepG2 cells, H499L point mutant of human TPO receptor; type: cell-based; conditions: H499L point mutation in the human TPO receptor
T2 construct: expressed in transfected cells; host or cells: HepG2
T2 sequence (P40238 26-635 H499L): T1 sequence (P40238 26-635) with H474L
Description: (§3) To further investigate the activity of compounds of Formula (I), cDNA clones for cynomolgous monkey TPO receptor were isolated and sequenced. […] It was clear from these experiments that the compounds of Formula I show strict specificity for the human TPO receptor, a finding also confirmed by STAT activation assays of platelets from human and cyno origin. In order to examine the region of the TPO receptor required for compound activity, a series of human/cyno TPO-R chimeric receptors were transfected into HepG2 cells and tested for their response to compounds of Formula (I). […] To investigate the role of this specific transmembrane domain mutation on the activity of compounds of Formula (I), two point mutations were constructed: a) a H499L change into the human TPO receptor transmembrane domain, creating a receptor with human extracellular and cytoplasmic domains and a cyno receptor transmembrane domain and b) a L499H change into the cyno receptor transmembrane domain creating a chimera with cyno extracellular and cytoplasmic domains and a human transmembrane domain. […] Conversely, the L499H mutation in the cyno TPO receptor allowed it to be activated by both TPO and the compounds with potencies and efficacies similar to those seen on wild type human receptor. […]

cyno TPO receptor L499H = experiment: luciferase reporter in HepG2 cells, L499H point mutant of cyno TPO receptor; type: cell-based, cynomolgous monkey; conditions: L499H mutation in the cyno TPO receptor
Description: as §3

## TPO: thrombopoietin, natural protein ligand of the TPO receptor
HepG2
  response, luciferase expression: do not respond
Human TPO receptor
  response, luciferase expression: large increase in luciferase expression
Human TPO receptor H499L
  receptor response: little effect on the response
Cyno TPO receptor L499H
  receptor activation: activated
